Experiments:
HT29 cells = experiment: Colony forming ability, single agent or combined with SN-38; type: cell-based, human
Procedure: The HT29 cells were seeded in 60 mm- Petri dishes at a density of 5x10^4 cells/ plate in DMEM medium plus 10% serum FCS. After 24 hours cells were exposed to the following drugs: Ethyl-10-hydroxy-camptothecin (SN-38; 0.2, 0.4, 0.8 μM for 2 hrs), compound 8 (at 0.1, 0.2 and 0.4 μM for 96 hours) and compound 1 (0.5 and 1 μM for 96 hours). In the combination experiments the two different sequence of drug administration were evaluated: campthotecin followed by G-quadruplex ligands and the inverse sequence at fixed equipotent ratios. The medium containing the first drug was removed and replaced with fresh medium containing the second drug. Colony forming ability was evaluated as previously reported.
Synergism, additivity, and antagonism were assessed by isobologram analysis as reported previously. Combination index (CI) values <0.9, > 0.9 < 1.2, and >1.2 indicate synergism, additivity, and antagonism, respectively. The Student’s t-test (unpaired, two-tailed) was used for comparing statistical differences. Differences were considered statistically significant when P < 0.05.
We have previously reported that compound 1 in combination therapy with topoisomerase (TOPO) I inhibitors (Camptothecins) produced a synergistic antitumoral activitiy in in vitro and in vivo models. […] The study of in vitro interaction between agent 8 and ethyl-10-hydroxy-camptothecin (SN-38), the active metabolite of camptothecin Irinotecan, was preceded by experiments in which the cell colony-forming ability of the human colorectal adenocarcinoma HT29 cells was evaluated at different doses of compound 1 or 8. […]
Figure 3 Anti-tumor efficacy of compound 8 in single or combined administration with the topoisomerase I inhibitor SN-38. […] Surviving fractions were calculated as the ratio of absolute survival of the treated sample/absolute survival of the untreated sample. […] In the histograms the surviving fractions calculated as in (A) are reported. […] (C) Combination Index for SN-38 and 8 was calculated by the Chou–Talalay method. […]

[1] = tested on: h-Tel quadruplex DNA sequence 5'-d[AGGG(TTAGGG)3]-3'; experiment: SPR binding to quadruplex DNA; design: species or system human
Procedure: Oligonucleotides 5’-biotin-d [AG3 (T2AG3)3] quadruplex and 5’-biotin-CGA3T3C(CT)2GA3T3CG were purchased from Midland Certified Reagent Company (Midland, TX). Purification of DNA, preparation of solutions, collection of data, and analysis of results were conducted according to methods adopted in an earlier study.
This technique takes advantage of the refractive index change elicits by the binding of the drug with the h-Tel quadruplex DNA sequence 5’-d[AGGG(TTAGGG)3]-3’ or an alternating hairpin duplex sequence immobilized on a sensor chip surface.

BJ-EHLT fibroblasts = experiment: γ-H2AX/PCNA co-immunostaining (replication-dependent DNA damage); type: cell-based, human; settings: 24 hrs
Procedure: Cells were fixed in 2% formaldehyde and permeabilized in 0.25% Triton X100 in PBS for 5 min at room temperature. For immunolabeling, cells were incubated with primary antibody, then washed in PBS and incubated with the secondary antibodies. The following primary antibodies were used: pAb and mAb anti-TRF1(Abcam Ltd.; Cambridge UK); mAb (Upstate, Lake Placid, NY) and pAb anti-γH2AX (Abcam); mAb anti-PCNA (Sigma Chemicals, Milano, Italy). The following secondary antibody were used: TRITC conjugated Goat anti Rabbit, FITC conjugated Goat anti Mouse (Jackson ImmunoResearch Europe Ltd., Suffolk, UK). Fluorescence signals were recorded by using a Leica DMIRE2 microscope equipped with a Leica DFC 350FX camera and elaborated by a Leica FW4000 deconvolution software (Leica, Solms, Germany). This system permits to focus single planes inside the cell generating 3D highresolution images. For quantitative analysis of γH2AX positivity, 200 cells on triplicate slices were scored. For TIFs analysis, in each nucleus a single plane was analyzed and at least 50 nuclei per sample were scored.
Figure 2 DNA damage activation at telomeres. BJ-EHLT fibroblasts were treated for 24 hrs with compound 1 and the indicated ligands at the doses 0.1 (light-grey bars) and 0.5 μM (dark-grey bars). […] Cells with four or more γ-H2AX/TRF1 foci were scored as TIF positive. […]

- Quadruplex DNA affinity K [1]: 14,2 x10^6 M^−1
- Quadruplex/duplex ratio ([1]; quadruplex vs duplex affinity): 15,8
Compound: CC(=O)NCC#Cc1ccc2c3cccc4c3c([n+](C)c2c1)-c1ccccc1N4C [Compound 8]
- cell survival (colony-forming ability), single agent (HT29 cells; HT29, 96 hours, 0.1 to 0.8 μM): inhibited cell survival in a dose-dependent manner like compound 1 but more efficiently so
- Interaction with SN-38, inverse sequence (HT29 cells; HT29, G4-ligand followed by SN-38): additive or slight synergistic interaction
- Combination Index (CI) with SN-38 (HT29 cells; HT29, SN-38 (2 hrs) followed by the G4-ligand (96 hours)): < 0.5
- γ-H2AX foci formation relative to PCNA status (BJ-EHLT fibroblasts): almost exclusively restricted to PCNA-positive

Reference: publication PMC4193996 (Journal of Experimental & Clinical Cancer Research : CR, 2014)
